Organism: Rattus norvegicus
Test: Open TG-GATES - Regimen: Daily Repeat
Type: toxicity, organism-based, Sprague-Dawley
Design: regimen Daily Repeat, gender Male, age 6 weeks
Details: in vivo, po, 0 mg/kg, […], route gavage, dose level Control; for KIDNEY_L / KIDNEY_R / KIDNEY_TOTAL: tissue Kidney; for LIVER: tissue Liver; for A/G / ALP / ALT / AST / BUN / CRE / Ca / Cl / DBIL / GLC / IP / K / LDH / Na / PL / RALB / TBIL / TC / TG / TP / gamma-GTP: tissue Plasma

## OCCOCCN1CCN(C(c2ccccc2)c2ccc(Cl)cc2)CC1 (stereo unspecified) [HYDROXYZINE]
Tissue Blood, time 28 day
  Lym: 79.6%
  MCH: 19.7 pg
  MCHC: 34.7%
  MCV: 56.7 fL
  Mono: 2%
  Neu: 16.4%
  PT: 15.9 s
  Plat: 105.6 x10_4/uL
  RBC: 766.4 x10_4/ul
  Ret: 2.4%
  WBC: 99.9 x10_2/uL
Time 7 day
  KIDNEY_L: 1.1 g
  KIDNEY_R: 1.1 g
  KIDNEY_TOTAL: 2.3 g
  LIVER: 12.4 g
  A/G: 0.8
  ALP: 1624.6 IU/L
  ALT: 41.6 IU/L
  AST: 68.4 IU/L
  BUN: 16.6 mg/dL
  CRE: 0.2 mg/dL
  Ca: 11 mg/dL
  Cl: 105.2 meq/L
  DBIL: 0.016 mg/dL
  GLC: 193 mg/dL
  IP: 8 mg/dL
  K: 4 meq/L
  LDH: 68.4 IU/L
  Na: 143.2 meq/L
  PL: 166.6 mg/dL
  RALB: 2.7 g/dL
  TBIL: 0.054 mg/dL
  TC: 84 mg/dL
  TG: 103 mg/dL
  TP: 5.8 g/dL
  gamma-GTP: 0.8 IU/L
Time 14 day
  KIDNEY_L: 1.3 g
  KIDNEY_R: 1.3 g
  KIDNEY_TOTAL: 2.7 g
  LIVER: 15.4 g
  A/G: 0.8
  ALP: 1450 IU/L
  ALT: 40.6 IU/L
  AST: 62.6 IU/L
  BUN: 16.2 mg/dL
  CRE: 0.2 mg/dL
  Ca: 10.6 mg/dL
  Cl: 103.8 meq/L
  DBIL: 0.02 mg/dL
  GLC: 190.2 mg/dL
  IP: 7.4 mg/dL
  K: 4 meq/L
  LDH: 94.6 IU/L
  Na: 141.8 meq/L
  PL: 151.2 mg/dL
  RALB: 2.7 g/dL
  TBIL: 0.056 mg/dL
  TC: 73 mg/dL
  TG: 126.4 mg/dL
  TP: 6.1 g/dL
  gamma-GTP: 0.6 IU/L
Time 28 day
  KIDNEY_L: 1.4 g
  KIDNEY_R: 1.3 g
  KIDNEY_TOTAL: 2.8 g
  LIVER: 16.2 g
  A/G: 0.8
  ALP: 992.6 IU/L
  ALT: 36 IU/L
  AST: 61.2 IU/L
  BUN: 16.8 mg/dL
  CRE: 0.2 mg/dL
  Ca: 10.6 mg/dL
  Cl: 106 meq/L
  DBIL: 0.016 mg/dL
  GLC: 186.6 mg/dL
  IP: 6.6 mg/dL
  K: 4.1 meq/L
  LDH: 118.8 IU/L
  Na: 142.8 meq/L
  PL: 149.2 mg/dL
  RALB: 2.8 g/dL
  TBIL: 0.052 mg/dL
  TC: 68.2 mg/dL
  TG: 161.2 mg/dL
  TP: 6.3 g/dL
  gamma-GTP: 0.4 IU/L

From ChEMBL document CHEMBL3885861, “Open TG-GATES”
